The record followed here is publication PMC5468247, “Development of a selective agonist for relaxin family peptide receptor 3” (Scientific Reports, 2017).

Test [1] concerns the target T1, human RXFP3 (Homo sapiens, UniProt Q9NSD7).
T1 construct: expressed in transfected cells; host or cells: HEK293T
T1 sequence (Q9NSD7 1-469): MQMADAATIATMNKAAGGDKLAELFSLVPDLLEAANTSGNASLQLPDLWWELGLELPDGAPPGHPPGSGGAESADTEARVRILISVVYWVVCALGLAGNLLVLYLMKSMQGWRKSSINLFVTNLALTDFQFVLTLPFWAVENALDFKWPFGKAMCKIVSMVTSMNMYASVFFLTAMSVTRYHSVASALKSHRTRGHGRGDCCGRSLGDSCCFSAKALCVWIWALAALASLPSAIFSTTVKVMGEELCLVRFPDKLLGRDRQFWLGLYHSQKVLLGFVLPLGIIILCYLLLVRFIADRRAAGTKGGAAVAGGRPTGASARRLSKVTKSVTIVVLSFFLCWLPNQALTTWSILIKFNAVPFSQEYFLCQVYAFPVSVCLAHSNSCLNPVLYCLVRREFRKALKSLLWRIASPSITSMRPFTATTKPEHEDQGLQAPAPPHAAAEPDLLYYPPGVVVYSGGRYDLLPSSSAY
Nature of the test: Receptor binding assay, NanoLuc-conjugated R3/I5 tracer competition. The conditions noted are these: for binding potency towards RXFP3, in words: compared with R3/I5. How it is done:
(§1) Specific binding data are expressed as means ± SE (n = 3) and fitted to sigmoidal curves using SigmaPlot 10.0 software.
(§2) Briefly, HEK293T cells were transiently transfected with an expression construct of human RXFP3 or human RXFP4. On the next day, transfected cells were trypsinised, seeded into 96-well plates, and continuously cultured for 24–36 h to ~100% confluence. […] After incubation at 21 °C for 2 h, binding solution was removed and cells were washed twice with ice-cold phosphate-buffered saline (200 μl/well for each wash). Thereafter, cells were lysed by lysis solution (100 μl/well, Promega, Madison, WI, USA) and cell lysates were transferred to a white opaque 96-well plate (50 μl/well). After mixing with freshly diluted substrate (50 μl/well), bioluminescence was immediately measured on a SpectraMax M5 plate reader (Molecular Devices, Sunnyvale, CA, USA) in luminescence mode. […] The calculated specific binding data were expressed as means ± standard error (SE; n = 3) and fitted to sigmoidal curves using SigmaPlot 10.0 software.

The target of test [2] is T2, human RXFP4 (Homo sapiens, UniProt Q8TDU9).
T2 construct: expressed in transfected cells; host or cells: HEK293T
Described as above. The conditions noted are these: for binding potency towards RXFP4, in words: compared with R3/I5. How it is done:
as §1, §2

Test [3] concerns the target T1, human RXFP3. Nature of the test: Receptor activation assay, CRE-controlled NanoLuc reporter. The conditions noted are these: CRE-NanoLuc reporter, human RXFP3; for fold lower activation potency towards RXFP3 compared with R3/I5: relative to R3/I5. The class given is cell-based. An excerpt:
(§3) HEK293T cells transiently cotransfected with a CRE-controlled NanoLuc reporter vector and the expression construct of human RXFP3 or human RXFP4 were used for activation assays. The measured bioluminescence data are expressed as means ± SE (n = 3) and fitted to sigmoidal or linear curves using SigmaPlot 10.0.
(§4) Briefly, HEK293T cells were transiently cotransfected with the NanoLuc reporter vector pNL1.2/CRE and the expression construct of human RXFP3 or human RXFP4. On the next day, transfected cells were trypsinised, seeded into 96-well plates, and continuously cultured for 24–36 h to ~90% confluence. To initiate activation assays, medium was removed and activation solution (serum-free DMEM medium plus 1% bovine serum albumin) containing 1.0 μM of forskolin and various concentrations of peptide was added (100 μl/well). After continuous culturing at 37 °C for 4 h, activation solution was removed and cells were lysed with lysis solution (100 μl/well, Promega). Cell lysates were then transferred to a white opaque 96-well plate (50 μl/well), mixed with freshly diluted substrate (50 μl/well), and bioluminescence was immediately measured on a SpectraMax M5 plate reader (Molecular Devices) in luminescence mode. The measured data were expressed as means ± SE (n = 3) and fitted to sigmoidal or linear curves using SigmaPlot 10.0 software.

Test [4] deals with T2, human RXFP4. The description is as above. The conditions noted are these: relative to R3/I5. The test is classed as cell-based.
Text: as §3, §4

T2 sequence (Q8TDU9 whole entry): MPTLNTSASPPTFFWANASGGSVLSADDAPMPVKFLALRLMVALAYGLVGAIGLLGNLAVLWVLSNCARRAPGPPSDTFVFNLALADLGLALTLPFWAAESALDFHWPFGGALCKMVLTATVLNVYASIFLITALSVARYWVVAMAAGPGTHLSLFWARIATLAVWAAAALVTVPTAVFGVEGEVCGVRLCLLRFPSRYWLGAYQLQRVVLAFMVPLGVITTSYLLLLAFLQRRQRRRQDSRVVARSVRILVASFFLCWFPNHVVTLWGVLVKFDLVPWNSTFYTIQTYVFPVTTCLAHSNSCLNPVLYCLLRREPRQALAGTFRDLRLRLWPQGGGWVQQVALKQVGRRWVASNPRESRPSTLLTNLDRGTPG

Consider `CC[C@H](C)[C@@H]1NC(=O)[C@H](Cc2ccccc2)NC(=O)[C@H](CCC(=O)O)NC(=O)[C@H](CCCNC(=N)N)NC(=O)CNC(=O)[C@@H](NC(=O)[C@H](CC(C)C)NC(=O)[C@H](CCCNC(=N)N)NC(=O)[C@@H](NC(=O)CNC(=O)[C@H](Cc2ccc(O)cc2)NC(=O)[C@@H]2CCCN2C(=O)[C@H](C)NC(=O)[C@H](C)NC(=O)[C@H](CCCNC(=N)N)NC(=O)[C@@H]2CCC(=O)N2)C(C)C)CSSC[C@@H]2NC(=O)[C@@H](NC(=O)[C@H](CC(C)C)NC(=O)[C@@H](NC(=O)[C@H](CCC(N)=O)NC(=O)[C@H](CC(C)C)NC(=O)[C@H](CC(=O)O)NC(=O)[C@H](CCC(N)=O)NC(=O)[C@H](CCCNC(=N)N)NC(=O)[C@H](CO)NC(=O)[C@H](CCCNC(=N)N)NC(=O)[C@H](CCCNC(=N)N)NC(=O)[C@H](CO)NC(=O)[C@@H](N)CCCNC(=N)N)[C@@H](C)O)CSSC[C@H](NC(=O)CNC(=O)[C@H](CC(=O)O)NC(=O)[C@H]([C@@H](C)O)NC2=O)C(=O)N[C@@H](CO)C(=O)N[C@@H](CCSC)C(=O)N[C@@H]([C@@H](C)O)C(=O)N[C@@H](CC(=O)O)C(=O)N[C@@H](CC(C)C)C(=O)N[C@@H](CO)C(=O)N[C@@H](C)C(=O)N[C@@H](CC(C)C)C(=O)N[C@H](C(=O)O)CSSC[C@@H](C(=O)NCC(=O)NCC(=O)NCC(=O)N[C@@H](CO)C(=O)N[C@@H](CCCNC(=N)N)C(=O)N[C@@H](Cc2c[nH]c3ccccc23)C(=O)O)NC(=O)[C@H]([C@@H](C)O)NC(=O)[C@H](Cc2ccccc2)NC(=O)[C@H]([C@@H](C)CC)NC(=O)[C@H](C(C)C)NC(=O)[C@H](C)NC(=O)[C@H](CCCNC(=N)N)NC1=O` [[+G(B23-24)]R3/I5], for which the “binding potency towards RXFP3, in words” value at human RXFP3 [1] was “comparable with R3/I5”. On human RXFP4 [2], the “binding potency towards RXFP4, in words” value is “comparable with R3/I5”. In addition, on human RXFP3 [3], the “fold lower activation potency towards RXFP3 compared with R3/I5” value is recorded as ~ 100 fold. At human RXFP4 [4], the “fold lower activation potency towards RXFP4 compared with R3/I5” value is reported as ~ 100 fold.
`CC[C@H](C)[C@@H]1NC(=O)[C@H](Cc2ccccc2)NC(=O)[C@H](CCC(=O)O)NC(=O)[C@H](CCCNC(=N)N)NC(=O)CNC(=O)[C@@H](NC(=O)[C@H](CC(C)C)NC(=O)[C@H](CCCNC(=N)N)NC(=O)[C@@H](NC(=O)CNC(=O)[C@H](Cc2ccc(O)cc2)NC(=O)[C@@H]2CCCN2C(=O)[C@H](C)NC(=O)[C@H](C)NC(=O)[C@H](CCCNC(=N)N)NC(=O)[C@@H]2CCC(=O)N2)C(C)C)CSSC[C@@H]2NC(=O)[C@@H](NC(=O)[C@H](CC(C)C)NC(=O)[C@@H](NC(=O)[C@H](CCC(N)=O)NC(=O)[C@H](CC(C)C)NC(=O)[C@H](CC(=O)O)NC(=O)[C@H](CCC(N)=O)NC(=O)[C@H](CCCNC(=N)N)NC(=O)[C@H](CO)NC(=O)[C@H](CCCNC(=N)N)NC(=O)[C@H](CCCNC(=N)N)NC(=O)[C@H](CO)NC(=O)[C@@H](N)CCCNC(=N)N)[C@@H](C)O)CSSC[C@H](NC(=O)CNC(=O)[C@H](CC(=O)O)NC(=O)[C@H]([C@@H](C)O)NC2=O)C(=O)N[C@@H](CO)C(=O)N[C@@H](CCSC)C(=O)N[C@@H]([C@@H](C)O)C(=O)N[C@@H](CC(=O)O)C(=O)N[C@@H](CC(C)C)C(=O)N[C@@H](CO)C(=O)N[C@@H](C)C(=O)N[C@@H](CC(C)C)C(=O)N[C@H](C(=O)O)CSSC[C@@H](C(=O)NCC(=O)N[C@@H](CO)C(=O)N[C@@H](CCCNC(=N)N)C(=O)N[C@@H](Cc2c[nH]c3ccccc23)C(=O)O)NC(=O)[C@H]([C@@H](C)O)NC(=O)[C@H](Cc2ccccc2)NC(=O)[C@H]([C@@H](C)CC)NC(=O)[C@H](C(C)C)NC(=O)[C@H](C)NC(=O)[C@H](CCCNC(=N)N)NC1=O` [[∆B23]R3/I5]: the “binding potency towards RXFP3, in words” value on human RXFP3 [1] is “retained considerable binding potency”. The “binding potency towards RXFP4, in words” value at human RXFP4 [2] is reported as “retained considerable binding potency”. Moreover, the “fold lower activation potency towards RXFP3 compared with R3/I5” value at human RXFP3 [3] was ~ 300 fold. Moreover, the “fold lower activation potency towards RXFP4 compared with R3/I5” value on human RXFP4 [4] is listed as ~ 300 fold.
As to `CC[C@H](C)[C@@H]1NC(=O)[C@H](Cc2ccccc2)NC(=O)[C@H](CCC(=O)O)NC(=O)[C@H](CCCNC(=N)N)NC(=O)CNC(=O)[C@@H](NC(=O)[C@H](CC(C)C)NC(=O)[C@H](CCCNC(=N)N)NC(=O)[C@@H](NC(=O)CNC(=O)[C@H](Cc2ccc(O)cc2)NC(=O)[C@@H]2CCCN2C(=O)[C@H](C)NC(=O)[C@H](C)NC(=O)[C@H](CCCNC(=N)N)NC(=O)[C@@H]2CCC(=O)N2)C(C)C)CSSC[C@@H]2NC(=O)[C@@H](NC(=O)[C@H](CC(C)C)NC(=O)[C@@H](NC(=O)[C@H](CCC(N)=O)NC(=O)[C@H](CC(C)C)NC(=O)[C@H](CC(=O)O)NC(=O)[C@H](CCC(N)=O)NC(=O)[C@H](CCCNC(=N)N)NC(=O)[C@H](CO)NC(=O)[C@H](CCCNC(=N)N)NC(=O)[C@H](CCCNC(=N)N)NC(=O)[C@H](CO)NC(=O)[C@@H](N)CCCNC(=N)N)[C@@H](C)O)CSSC[C@H](NC(=O)CNC(=O)[C@H](CC(=O)O)NC(=O)[C@H]([C@@H](C)O)NC2=O)C(=O)N[C@@H](CO)C(=O)N[C@@H](CCSC)C(=O)N[C@@H]([C@@H](C)O)C(=O)N[C@@H](CC(=O)O)C(=O)N[C@@H](CC(C)C)C(=O)N[C@@H](CO)C(=O)N[C@@H](C)C(=O)N[C@@H](CC(C)C)C(=O)N[C@H](C(=O)O)CSSC[C@@H](C(=O)N[C@@H](CO)C(=O)N[C@@H](CCCNC(=N)N)C(=O)N[C@@H](Cc2c[nH]c3ccccc23)C(=O)O)NC(=O)[C@H]([C@@H](C)O)NC(=O)[C@H](Cc2ccccc2)NC(=O)[C@H]([C@@H](C)CC)NC(=O)[C@H](C(C)C)NC(=O)[C@H](C)NC(=O)[C@H](CCCNC(=N)N)NC1=O` [[∆B23-24]R3/I5], the “fold lower binding potency for RXFP3 compared with R3/I5” value at human RXFP3 [1] (relative to R3/I5) is on record as ~ 3 fold. Also, the “fold lower binding potency towards RXFP4 compared with R3/I5” value at human RXFP4 [2] (relative to R3/I5) was ~ 10 fold. Also, the “activation potency towards RXFP3, in words” value on human RXFP3 [3] (compared with R3/I5) is reported as “lost all activation potency”. Further, at human RXFP4 [4], the “fold lower activation potency towards RXFP4 compared with R3/I5” value is ~ 1000 fold.
